Experimental findings from US20130164226A1, “FOAMABLE AEROSOL COMPOSITION” (DAIZO CORPORATION, priority 2010, published 2013) are described below.

This series can be described thus: Solubility of the liquefied gas in water. The class given is physicochemical. The conditions noted are these: at 20° C. How it is done:
In the present invention, the liquefied gas to be blended is characterized by being a poorly water-soluble liquefied gas having solubility in water at 20° C. of less than 10 wt %, preferably less than 5 wt %. When the solubility of the liquefied gas in water is more than 10 wt %, the liquefied gas is hardly emulsified with the concentrate and emulsification stability is apt to be lowered, and therefore, a uniform composition tends to be hardly sprayed. In addition, in the case of blending a gas mixture as the liquefied gas, it is enough for the gas mixture to have properties corresponding to those of a poorly water-soluble liquefied gas.

Consider `COC` [dimethyl ether (*17), dimethyl ether], for which the solubility in water is given as 33 wt %.

For the compound `F/C=C/C(F)(F)F` [trans-1,3,3,3-tetrafluoroprop-1-ene], the solubility in water is recorded as ≤ 1 wt %.
